One data set has as its system HL-60. Nature of the data set: HL-60 differentiation potency. Type of data set: cell-based. The conditions noted are these: Homo sapiens.
Another data set can be described thus: in vitro. The conditions noted are these: human.

For `C[C@H]1[C@H](NCCS(=O)(=O)N(C)C)O[C@@H]2O[C@@]3(C)CC[C@H]4[C@H](C)CC[C@@H]1[C@@]24OO3` [Compound 59, N,N-dimethyl-2-(((3R,5aS,6R, 8aS,9R,10R,12R, 12aR)-3,6,9-trimethyldeca-hydro-12H-3,12-epoxy[1,2]dioxepino[4,3-i]isochromen-10-yl)amino) ethane-1-sulfonamide], the midpoint of the response with HL-60, the EC50, lay at 9630 nM. The IC50 (commonly the concentration needed to halve the response being measured) in “in vitro” came to 11000 nM.
As to `C[C@H]1[C@H](N[C@@H](C)c2ccc(S(C)(=O)=O)cc2)O[C@@H]2O[C@@]3(C)CC[C@H]4[C@H](C)CC[C@@H]1[C@@]24OO3` [Compound 57, (3R,5aS,6R,8aS, 9R,10R,12R, 12aR)-3,6,9-trimethyl-N-((S)-1-(4-(methyl-sulfonyl)phenyl)ethyl)decahydro-12H-3,12-epoxy[1,2] dioxepino[4,3-i] isochromen-10-amine], in the data set on HL-60, the EC50 (usually the concentration needed to bring the measured effect to its halfway point) amounted to 8490 nM. In addition, half-maximal inhibition in “in vitro” (IC50) was put at 9890 nM.
With `C[C@H]1[C@@H](Oc2ccc(CCCCC(=O)O)cc2)O[C@@H]2O[C@@]3(C)CC[C@H]4[C@H](C)CC[C@@H]1[C@@]24OO3` [Compound 72, 5-(4-(((3R,5aS, 6R,8aS,9R,10S, 12R,12aR)-3,6,9-trimethyldeca-hydro-12H-3,12-epoxy[1,2]dioxepino[4,3-i]isochromen-10-yl)oxy)phenyl) pentanoic acid], the response in the data set on HL-60 was half-maximal at 113 nM (EC50). Further, in the data set “in vitro”, the IC50 stood at 777 nM.
In turn, `C[C@H]1[C@@H](OCc2ccc(C(=O)O)cc2Cl)O[C@@H]2O[C@@]3(C)CC[C@H]4[C@H](C)CC[C@@H]1[C@@]24OO3` [Compound 119, 3-chloro-4-((((3R,5aS,6R, 8aS,9R,10S,12R, 12aR)-3,6,9-trimethyldeca-hydro-12H-3,12-epoxy[1,2]dioxepino[4,3-i]isochromen-10-yl)oxy)methyl) benzoic acid] yielded an EC50 with HL-60 of 110 nM. The IC50 in “in vitro” is over 20000 nM.
On to `C[C@H]1[C@H](OCc2ccc(C#N)cc2)O[C@@H]2O[C@@]3(C)CC[C@H]4[C@H](C)CC[C@@H]1[C@@]24OO3` [Compound 7, 4-((((3R,5aS,6R, 8aS,9R,10R,12R, 12aR)-3,6,9-trimethyldeca-hydro-12H-3,12-epoxy[1,2]dioxepino[4,3-i]isochromen-10-yl)oxy)methyl) benzonitrile], for which the EC50 in the data set on HL-60 was found to be 54.6 nM. Further, 192 nM corresponded to half-maximal inhibition in the data set “in vitro” (IC50).
Taken in the same sequence, the figures for `C[C@H]1[C@H](OCc2ccc3c(c2)OC(F)(F)O3)O[C@@H]2O[C@@]3(C)CC[C@H]4[C@H](C)CC[C@@H]1[C@@]24OO3` [Compound 6, (3R,5aS,6R,8aS, 9R,10R,12R, 12aR)-10-((2,2-difluorobenzo [d][1,3]dioxol-5-yl)methoxy)-3,6,9-trimethyldeca-hydro-12H-3,12-epoxy[1,2] dioxepino[4,3-i] isochromene] were 53.2 nM and 50 nM.
The matching figures for `C[C@H]1[C@@H](OCc2ccnc(C(=O)O)c2)O[C@@H]2O[C@@]3(C)CC[C@H]4[C@H](C)CC[C@@H]1[C@@]24OO3` [Compound 15, 4-((((3R,5aS,6R, 8aS,9R,10S,12R, 12aR)-3,6,9-trimethyldeca-hydro-12H-3,12-epoxy[1,2]dioxepino[4,3-i]isochromen-10-yl)oxy)methyl) picolinic acid]: 93.1 nM and 2550 nM.
On to `C[C@H]1[C@H](OCCS(C)(=O)=O)O[C@@H]2O[C@@]3(C)CC[C@H]4[C@H](C)CC[C@@H]1[C@@]24OO3` [Compound 53, (3R,5aS,6R,8aS, 9R,10R,12R, 12aR)-3,6,9-trimethyl-10-(2-(methylsulfonyl)ethoxy)deca-hydro-12H-3,12-epoxy[1,2] dioxepino[4,3-i] isochromene], for which the concentration for a half-maximal effect (EC50) in the data set on HL-60 came out at 2730 nM. Moreover, in “in vitro”, the IC50 was over 20000 nM.
As for `C[C@H]1[C@H](N2CC[C@@H](C(=O)O)C2)O[C@@H]2O[C@@]3(C)CC[C@H]4[C@H](C)CC[C@@H]1[C@@]24OO3` [Compound 69, (R)-1-((3R,5aS,6R,8aS, 9R,10R,12R, 12aR)-3,6,9-trimethyldeca-hydro-12H-3,12-epoxy[1,2]dioxepino[4,3-i]isochromen-10-yl)pyrrolidine-3-carboxylic acid], in the data set on HL-60, the half-maximal effective concentration (EC50) is over 20000 nM. The same compound came in with an IC50 in the data set “in vitro” of over 20000 nM.

The values above are taken from patent publication US20260242391A1 (priority 2023, published 2026).
